The values below come from US20250230193A1, “CYCLIC COMPOUND HAVING SELECTIVE KRAS INHIBITORY EFFECT ON HRAS AND NRAS” (CHUGAI SEIYAKU KABUSHIKI KAISHA, priority 2022, published 2025).

Where a SMILES comes first, the peptide text is derived from it. Bridges are numbered along the chain shown (N, C = ends). [ ]: non-standard residue; d: D form. The star is where a group is joined. hPhe(3-Cl-4-CF3) = N[C@@H](CCc1ccc(C(F)(F)F)c(Cl)c1)C(=O)O; NPrPhe(4-CF3) = CCCN[C@@H](Cc1ccc(C(F)(F)F)cc1)C(=O)O; NMeGly(cPent) = CN[C@H](C(=O)O)C1CCCC1; NEtLeu = CCN[C@@H](CC(C)C)C(=O)O; NMeD = CN[C@@H](CC(=O)O)C(=O)O; NMeNva = CCC[C@H](NC)C(=O)O; Morpholide = C1CN(*)CCO1; Ac4c = NC1(C(=O)O)CCC1; NPrGly = CCCNCC(=O)O; Sar = CNCC(=O)O

Assay [1] has as its target GDP-bound NRAS wild-type protein (Homo sapiens, UniProt P01111). Briefly: Binding to NRAS by surface plasmon resonance (SPR), Single Cycle Kinetics. The following applies: KD ratio, GDP-bound NRAS wild-type vs GDP-bound KRAS wild-type, SPR. In general terms: In SPR one partner is held on a chip, and binding of the other changes the refractive index at the surface.
Assay [2] concerns the target GDP-bound HRAS wild-type protein (Homo sapiens, UniProt P01112). Kind of assay: Binding to HRAS by surface plasmon resonance (SPR), Single Cycle Kinetics. The following applies: KD ratio, GDP-bound HRAS wild-type vs GDP-bound KRAS wild-type, SPR.

GDP-bound HRAS wild-type protein, sequence (P01112 whole entry): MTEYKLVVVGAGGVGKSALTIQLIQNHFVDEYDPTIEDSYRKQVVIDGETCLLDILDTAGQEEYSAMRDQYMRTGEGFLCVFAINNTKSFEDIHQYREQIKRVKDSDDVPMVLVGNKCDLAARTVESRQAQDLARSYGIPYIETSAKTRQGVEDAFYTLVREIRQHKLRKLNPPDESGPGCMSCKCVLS
GDP-bound NRAS wild-type protein, sequence (P01111 whole entry): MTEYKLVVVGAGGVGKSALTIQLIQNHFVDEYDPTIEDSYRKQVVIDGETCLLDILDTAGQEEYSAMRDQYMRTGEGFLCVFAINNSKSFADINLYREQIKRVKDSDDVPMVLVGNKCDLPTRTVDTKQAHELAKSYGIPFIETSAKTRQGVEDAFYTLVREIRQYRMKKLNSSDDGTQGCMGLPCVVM

`CCO[C@@H]1C[C@H]2C(=O)NC3(CC(C)(C)C3)C(=O)N(C)[C@@H](C3CCCCC3)C(=O)N(C)[C@H](C(=O)N(C)C)CC(=O)N(C)[C@@H](CC)C(=O)N[C@@H]([C@@H](C)CC)C(=O)N(C)CC(=O)N(C)[C@H]3C/C=C\CCN(C3=O)[C@@H](Cc3ccc(C(F)(F)F)cc3)C(=O)N(C)CC(=O)N[C@@H](CCc3cc(F)c(C(F)(F)F)c(F)c3)C(=O)N2C1` [PP1942]: in assay [1], the “NRAS/KRAS (ratio of KD value for NRAS to KD value for KRAS)” value is given as “AA (a compound having 20 or more is denoted as AA)”. Besides, in assay [2], the “HRAS/KRAS (ratio of KD value for HRAS to KD value for KRAS)” value was “A (a compound having 10 or more and less than 20 is denoted as A)”.
With `CCC[C@H]1C(=O)N[C@@H]([C@@H](C)CC)C(=O)N(C)CC(=O)N(C)[C@H]2C/C=C\CCN(C2=O)[C@@H](Cc2ccc(C(F)(F)F)cc2)C(=O)N(C)CC(=O)N[C@@H](CCc2cc(F)c(C(F)(F)F)c(F)c2)C(=O)N2C[C@H](OCC)C[C@H]2C(=O)NC2(CC(C)(C)C2)C(=O)N(C)[C@@H](C2CCCC2)C(=O)N(C)[C@H](C(=O)N2CCC2)CC(=O)N1C` [PP1943], the “NRAS/KRAS (ratio of KD value for NRAS to KD value for KRAS)” value in assay [1] is “A (a compound having 10 or more and less than 20 is denoted as A)”. Besides, in assay [2], the “HRAS/KRAS (ratio of KD value for HRAS to KD value for KRAS)” value is “B (a compound having 3 or more and less than 10 is denoted as B)”.
`CCO[C@@H]1C[C@H]2C(=O)NC3(CC(C)(C)C3)C(=O)N(C)[C@@H](C3CCCC3)C(=O)N(C)[C@H](C(=O)N3CCCC3)CC(=O)N(C)[C@@H](CC)C(=O)N[C@@H]([C@@H](C)CC)C(=O)N(C)CC(=O)N(C)[C@H]3C/C=C\CCN(C3=O)[C@@H](Cc3ccc(C(F)(F)F)cc3)C(=O)N(C)CC(=O)N[C@@H](CCc3cc(F)c(C(F)(F)F)c(F)c3)C(=O)N2C1` [PP1944]: the “NRAS/KRAS (ratio of KD value for NRAS to KD value for KRAS)” value in assay [1] is “A (a compound having 10 or more and less than 20 is denoted as A)”. Further, the “HRAS/KRAS (ratio of KD value for HRAS to KD value for KRAS)” value in assay [2] is “A (a compound having 10 or more and less than 20 is denoted as A)”.
`CCO[C@@H]1C[C@H]2C(=O)NC3(CC(C)(C)C3)C(=O)N(C)[C@@H](C3CCCC3)C(=O)N(C)[C@H](C(=O)N3CCCCC3)CC(=O)N(C)[C@@H](CC)C(=O)N[C@@H]([C@@H](C)CC)C(=O)N(C)CC(=O)N(C)[C@H]3C/C=C\CCN(C3=O)[C@@H](Cc3ccc(C(F)(F)F)cc3)C(=O)N(C)CC(=O)N[C@@H](CCc3cc(F)c(C(F)(F)F)c(F)c3)C(=O)N2C1` [PP1945]: in assay [1], the “NRAS/KRAS (ratio of KD value for NRAS to KD value for KRAS)” value is “AA (a compound having 20 or more is denoted as AA)”. In assay [2], the “HRAS/KRAS (ratio of KD value for HRAS to KD value for KRAS)” value was “A (a compound having 10 or more and less than 20 is denoted as A)”.
Regarding `CCCN1C(=O)CN(C)C(=O)CN(C)C(=O)[C@H]([C@@H](C)CC)NC(=O)[C@H](CC(C)C)N(CC)C(=O)C[C@@H](C(=O)N2CCOCC2)N(C)C(=O)[C@H](C2CCCC2)N(C)C(=O)C2(CCC2)NC(=O)[C@@H]2CCCN2C(=O)[C@H](CCc2ccc(C(F)(F)F)c(Cl)c2)NC(=O)CN(C)C(=O)[C@@H]1Cc1ccc(C(F)(F)F)cc1` [PP1946] ([NEtLeu]I[Sar][Sar][NPrPhe(4-CF3)][Sar][hPhe(3-Cl-4-CF3)]P[Ac4c][NMeGly(cPent)][NMeD]-Morpholide; lactam N-11), the “NRAS/KRAS (ratio of KD value for NRAS to KD value for KRAS)” value in assay [1] is “B (a compound having 3 or more and less than 10 is denoted as B)”. Further, in assay [2], the “HRAS/KRAS (ratio of KD value for HRAS to KD value for KRAS)” value is “C (A compound having a KD ratio of 0.1 or more and less than 3 is denoted as C)”.
Take `CCC[C@H]1C(=O)N[C@@H]([C@@H](C)CC)C(=O)N(CCC)CC(=O)N(C)CC(=O)N(CCC)[C@@H](Cc2ccc(C(F)(F)F)cc2)C(=O)N(C)CC(=O)N[C@@H](CCc2ccc(C(F)(F)F)c(Cl)c2)C(=O)N2CCC[C@H]2C(=O)NC2(CCC2)C(=O)N(C)[C@@H](C2CCCC2)C(=O)N(C)[C@H](C(=O)N2CCOCC2)CC(=O)N1C` [PP1947] ([NMeNva]I[NPrGly][Sar][NPrPhe(4-CF3)][Sar][hPhe(3-Cl-4-CF3)]P[Ac4c][NMeGly(cPent)][NMeD]-Morpholide; lactam N-11): in assay [1], the “NRAS/KRAS (ratio of KD value for NRAS to KD value for KRAS)” value was “B (a compound having 3 or more and less than 10 is denoted as B)”. In addition, the “HRAS/KRAS (ratio of KD value for HRAS to KD value for KRAS)” value in assay [2] is “B (a compound having 3 or more and less than 10 is denoted as B)”.
